# Measurements published in patent US5925666A, “Pharmaceutical compositions and methods for treating compulsive disorders using pyrrolidine derivatives” (Guilford Pharmaceuticals Inc., priority 1997, dated 1999).
# “And” between values parts separate entries of the source, which are not always exact repeats. Equal entries are not always repeated.
# Assays:
# [1] = target: T1, cocaine binding site of the human dopamine transporter (Homo sapiens, UniProt Q01959); assay: [3H]CFT binding at the cocaine binding site, hDAT cells
# T1 construct: expressed in transfected cells
# [2] = target: T2, human dopamine transporter (Homo sapiens, UniProt Q01959); assay: [3H]Dopamine uptake inhibition, hDAT cells; type: cell-based; conditions: for Uptake to Binding Ratio (Kiuptake/Kibinding): ratio of Kiuptake to Kibinding at hDAT
# T2 construct: expressed in transfected cells
# [3] = tested on: alcohol-preferring (P) line of rats; assay: Inhibition of ethanol intake in alcohol-preferring rats; type: in vivo, rat; conditions: 30 mg/kg i.p.
# Description: The effect of systemic administration of (R)-(+)-α,α-diphenyl-2-pyrrolidinemethanol on ethanol intake in the alcohol-preferring (P) line of rats was performed as previously described by Panocka et al., Pharm. Biochem. and Behavior, 1995, 52, 2, 255-259, and Murphy et al., Alcohol, 1985, 2, 349-352. In brief, (R)-(+)-α,α-diphenyl-2-pyrrolidinemethanol (30 mg/kg i.p.) was tested in female P rats (n=8) given daily 1 hour scheduled access to a 10% (v/v) ethanol solution. A within-subject design was used where (R)-(+)-α,α-diphenyl-2-pyrrolidinemethanol treatments were tested once per week. Baseline ethanol drinking consisted of the mean of the 3 days prior to testing in which saline injections were given. (R)-(+)-α,α-diphenyl-2-pyrrolidinemethanol or saline, administered i.p. in 1 ml/kg volumes, were injected 10-15 minutes prior to ethanol access. Twenty-four hour water and daily body weights were recorded to assess non-specific drug effects. Results were analyzed using paired t-tests with baseline and test day values serving as the independent variables. Ethanol intake was recorded as amount of solution consumed (mls).
# Male Long-Evans rats = assay: Inhibition of nicotine self-administration in male Long-Evans rats; type: in vivo, rat; conditions: 10, 20 and 30 mg/kg i.p. 15 minutes before 60 minute session; nicotine 30 μg/kg/infusion; FIG. 1
# Description: Male Long-Evans rats were trained to self-administer nicotine on a fixed ratio schedule of reinforcement, as described by Corrigall et al., Psychopharmacology, Vol. 104, No. 2, pp. 171-176 (1991) and Corrigall et al., Psychopharmacology, Vol. 107, Nos. 2-3, pp. 285-289 (1992). In brief, male Long-Evans rats were food deprived for a short period of time (24-48 hours) and trained to press a lever in an operant responding chamber on an FR-1 schedule of food reinforcement. Once trained, each rat was surgically prepared with a chronic intravenous catheter implanted into the jugular vein. The rats were allowed 1 week to recover from surgery.
# After 1 week, nicotine self-administration studies were initiated on an FR-1 with a 60 second signaled time-out following each infusion. During time-out, responding on the lever had no scheduled consequence. Nicotine self-administration sessions were 60 minutes in duration. Each nicotine infusion contained 30 μg of nicotine/kg rat and were delivered in a volume of 54 μl over an infusion duration of 0.3 seconds. 15 minutes before the self-administration sessions, the rats were pre-treated intraperitoneally with (R)-(+)-α,α-diphenyl-2-pyrrolidinemethanol at doses of 10, 20 and 30 mg/kg.
# [4] = individual rats P31-P40 (b249-b258 in order)
# T1 sequence (Q01959 whole entry): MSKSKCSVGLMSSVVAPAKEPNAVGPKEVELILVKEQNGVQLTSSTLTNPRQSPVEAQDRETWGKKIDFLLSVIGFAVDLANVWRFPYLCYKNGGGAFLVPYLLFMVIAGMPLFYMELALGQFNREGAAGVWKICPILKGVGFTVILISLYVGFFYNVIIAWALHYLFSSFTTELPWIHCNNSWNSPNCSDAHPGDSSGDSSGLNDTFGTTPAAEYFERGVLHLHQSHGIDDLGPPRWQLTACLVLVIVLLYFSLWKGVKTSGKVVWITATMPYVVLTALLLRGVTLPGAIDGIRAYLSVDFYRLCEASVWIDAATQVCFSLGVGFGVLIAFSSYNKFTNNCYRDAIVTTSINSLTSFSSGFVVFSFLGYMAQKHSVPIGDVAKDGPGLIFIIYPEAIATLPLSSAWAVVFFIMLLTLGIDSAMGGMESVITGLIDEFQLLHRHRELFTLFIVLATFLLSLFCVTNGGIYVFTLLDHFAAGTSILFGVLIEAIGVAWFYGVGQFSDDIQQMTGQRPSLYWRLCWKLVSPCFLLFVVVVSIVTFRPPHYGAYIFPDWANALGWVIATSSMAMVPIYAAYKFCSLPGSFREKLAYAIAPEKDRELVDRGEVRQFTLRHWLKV
# T2 sequence (Q01959 whole entry): as above
Structure (SMILES),Ki [1] [nM],Ki [2] [nM],Uptake to Binding Ratio (Kiuptake/Kibinding) [2],"reduction of ethanol consumption ([3]; 1 hour access period, vs saline baseline, p<0.05)",effect on water consumption ([3]; 24 hours following administration),Post-drug Water 24 hr ([3]; Means of rats P31-P40) [mL],Post-drug Weight ([3]; Means of rats P31-P40) [g],Test Day Ethanol 1 hr (g/kg) ([3]; Means of rats P31-P40),Test Day Ethanol 1 hr (ml) ([3]; Means of rats P31-P40) [mL],effect on body weights ([3]; P rats),"1 hour ethanol consumption ([3]; female P rats, 10% (v/v) ethanol, mean ± S.E.M., saline baseline 8.2±0.8 mls, p<0.05) [mls]","24 hour water intake ([3]; female P rats, mean ± S.E.M., saline baseline 28±2.2 mls) [mls]","24 hour body weights ([3]; female P rats, mean ± S.E.M., saline baseline 310±6.1 g) [g]","Post-drug Water 24 hr [3, 4]","Post-drug Weight [3, 4]","Test Day Ethanol 1 hr (g/kg) [3, 4]","Test Day Ethanol 1 hr (ml) [3, 4]",nicotine self-administration (Male Long-Evans rats)
"OC(c1ccccc1)(c1ccccc1)[C@H]1CCCN1 [Compound 1, (R)-(+)-α,α-diphenyl-2-pyrrolidinemethanol]",40,170,4.25,approximately 45%,no effect,25,300,1.2,4.5,not altered,4.5±1.2,25±2.1,300 ± 6.2,23 mL and 26 mL and 28 mL and 32 mL and 18 mL and 12 mL,329 g and 291 g and 294 g and 305 g and 290 g and 297 g and 312 g and 263 g and 323 g,1.9 g/kg and 0.3 g/kg and 0.5 g/kg and 2.4 g/kg and 1.0 g/kg and 0.8 g/kg and 0 g/kg,8 mL and 7 mL and 1 mL and 2 mL and 10 mL and 9 mL and 4 mL and 3 mL and 0 mL,dose-dependently attenuated
"OC(c1ccccc1)(c1ccccc1)[C@@H]1CCCN1 [Compound 2, (S)-(-)-α,α-diphenyl-2-pyrrolidinemethanol]",400,1650,4.12,,,,,,,,,,,,,,,
"CCCN1CCC[C@H]1C(O)(c1ccccc1)c1ccccc1 [Compound 3, (S)-(-)-1-propyl-α,α-diphenyl-2-pyrrolidinemethanol]",3300,10300,3.12,,,,,,,,,,,,,,,
"Cc1cc(C(O)(c2ccc(F)c(C)c2)[C@@H]2CCCN2)ccc1F [Compound 4, (S)-α,α-Bis(3-methyl-4-fluorophenyl)-2-pyrrolidinemethanol]",260,440,1.69,,,,,,,,,,,,,,,
